According to ChEMBL document CHEMBL1142030, “Identification of small molecule inhibitors of the hepatitis C virus RNA-dependent RNA polymerase from a pyrrolidine combinatorial mixture” (Bioorg Med Chem Lett, 2005):
Values joined by “and” are separate entries in the source; they are usually repeats but may differ in a detail not shown here. Identical values can stand only once.

Biological target: RNA-directed RNA polymerase (Hepacivirus hominis, UniProt O39930)
Experiment: Inhibitory concentration against Hepatitis C virus RNA dependent RNA polymerase Nonstructural protein 5B

Sequence of RNA-directed RNA polymerase (O39930 whole entry): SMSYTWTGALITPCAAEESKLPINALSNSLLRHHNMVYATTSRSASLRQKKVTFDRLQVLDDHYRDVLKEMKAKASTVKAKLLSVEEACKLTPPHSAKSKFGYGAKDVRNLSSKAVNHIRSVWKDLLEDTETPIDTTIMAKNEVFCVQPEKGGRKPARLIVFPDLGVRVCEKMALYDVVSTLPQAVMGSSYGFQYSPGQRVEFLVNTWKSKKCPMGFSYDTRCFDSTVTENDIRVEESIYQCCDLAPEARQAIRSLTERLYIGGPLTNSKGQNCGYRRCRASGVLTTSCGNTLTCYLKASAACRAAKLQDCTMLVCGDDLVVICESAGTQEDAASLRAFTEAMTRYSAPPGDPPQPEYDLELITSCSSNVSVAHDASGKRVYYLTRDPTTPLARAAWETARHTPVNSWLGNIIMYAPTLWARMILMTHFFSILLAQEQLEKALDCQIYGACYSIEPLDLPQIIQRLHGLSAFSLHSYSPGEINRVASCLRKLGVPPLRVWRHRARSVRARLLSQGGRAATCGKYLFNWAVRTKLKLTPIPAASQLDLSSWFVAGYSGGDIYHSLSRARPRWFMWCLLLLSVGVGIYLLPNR

SMILES	IC50
O=C(O)[C@H]1C[C@@H](C(=O)O)N(C(=O)c2ccc(Cl)c(Cl)c2)C1 (racemic)	12000 nM
CCCCCCC(=O)N1[C@@H](c2cccs2)[C@@H](C(=O)O)C[C@@]1(CC(C)C)C(=O)O	> 20000 nM
O=C(O)[C@H]1C[C@@H](C(=O)O)N(C(=O)c2ccc(C(F)(F)F)cc2)C1 (racemic)	7600 nM
C[C@@]1(C(=O)O)C[C@H](C(=O)O)[C@H](c2ccccc2)N1C(=O)c1ccc(C(F)(F)F)cc1	> 20000 nM
CC(C)C[C@@]1(C(=O)O)C[C@H](C(=O)O)[C@H](c2cccs2)N1C(=O)c1ccncc1	> 20000 nM
O=C(O)[C@H]1C[C@@](Cc2ccc(O)cc2)(C(=O)O)N(C(=O)c2ccc(C(F)(F)F)cc2)[C@H]1c1ccccc1	> 20000 nM
O=C(O)CC[C@@]1(C(=O)O)C[C@H](C(=O)O)[C@H](c2ccccc2)N1C(=O)c1ccc(C(F)(F)F)cc1	> 20000 nM
O=C(O)[C@H]1C[C@@](Cc2ccccc2)(C(=O)O)N(C(=O)c2ccc(C(F)(F)F)cc2)[C@H]1c1ccccc1	1900 nM
NCCC[C@@]1(C(=O)O)C[C@H](C(=O)O)[C@H](c2ccccc2)N1C(=O)c1ccc(C(F)(F)F)cc1	> 20000 nM
CC(C)C[C@@]1(C(=O)O)C[C@H](C(=O)O)[C@H](c2cccs2)N1C(=O)c1ccccc1C(F)(F)F	> 20000 nM
CC(C)C[C@@]1(C(=O)O)C[C@H](C(=O)O)[C@H](c2cccs2)N1C(=O)c1ccc(Cl)c(Cl)c1	600 nM
CC(C)C[C@@]1(C(=O)O)C[C@H](C(=O)O)[C@H](c2cccs2)N1C(=O)c1cccc2ccccc12	700 nM

The next lines start with the values.

IC50	SMILES
3300 nM	CCCC[C@@]1(C(=O)O)C[C@H](C(=O)O)[C@H](c2ccccc2)N1C(=O)c1ccc(C(F)(F)F)cc1
18000 nM	CC(C)C[C@@]1(C(=O)O)C[C@H](C(=O)O)C(c2cccs2)N1C(=O)c1ccc(C(F)(F)F)cc1 (single isomer, unassigned)
11400 nM	CC(C)C[C@@]1(C(=O)O)C[C@H](C(=O)O)[C@H](c2cccs2)N1C(=O)c1ccccc1
800 nM	CC(C)C[C@@]1(C(=O)O)C[C@H](C(=O)O)[C@H](c2ccco2)N1C(=O)c1ccc(C(F)(F)F)cc1
1000 nM	Cc1ccc([C@H]2[C@@H](C(=O)O)C[C@@](CC(C)C)(C(=O)O)N2C(=O)c2ccc(C(F)(F)F)cc2)cc1
1700 nM	CC(C)C[C@@]1(C(=O)O)C[C@H](C(=O)O)[C@H](c2cccs2)N1C(=O)c1ccc(Cl)cc1
500 nM	CC(C)C[C@@]1(C(=O)O)C[C@H](C(=O)O)[C@H](C(C)C)N1C(=O)c1ccc(C(F)(F)F)cc1
700 nM	CC(C)C[C@@]1(C(=O)O)C[C@H](C(=O)O)[C@H](c2ccccn2)N1C(=O)c1ccc(C(F)(F)F)cc1
300 nM and 190 nM	CC(C)C[C@@]1(C(=O)O)C[C@H](C(=O)O)[C@H](c2cccs2)N1C(=O)c1ccc(C(F)(F)F)cc1
900 nM	CC(C)C[C@@]1(C(=O)O)C[C@H](C(=O)O)[C@H](c2ccc(Cl)cc2)N1C(=O)c1ccc(C(F)(F)F)cc1
5100 nM	COc1ccccc1[C@H]1[C@@H](C(=O)O)C[C@@](CC(C)C)(C(=O)O)N1C(=O)c1ccc(C(F)(F)F)cc1
600 nM	CC(C)C[C@@]1(C(=O)O)C[C@H](C(=O)O)[C@H](c2cccs2)N1C(=O)c1cccc(C(F)(F)F)c1
700 nM	CC(C)C[C@@]1(C(=O)O)C[C@H](C(=O)O)[C@H](c2ccccc2)N1C(=O)c1ccc(C(F)(F)F)cc1
3200 nM	CC(C)C[C@@]1(C(=O)O)C[C@H](C(=O)O)[C@H](c2cccs2)N1C(=O)c1ccc([N+](=O)[O-])cc1
400 nM	CC(C)C[C@@]1(C(=O)O)C[C@H](C(=O)O)[C@H](c2nccs2)N1C(=O)c1ccc(C(F)(F)F)cc1
